*1 amine or outer side, *2 acyl side, *3 side chain or, on linkers, in order; H or OH if unused. Where a SMILES comes first, the peptide text is derived from it. Bridges are numbered along the chain shown (N, C = ends). [ ]: non-standard residue; d: D form. The star is where a group is joined. hPhe(3,5-F2-4-CF3) = N[C@@H](CCc1cc(F)c(C(F)(F)F)c(F)c1)C(=O)O; hPhe(3-Cl-4-CF3) = N[C@@H](CCc1ccc(C(F)(F)F)c(Cl)c1)C(=O)O; X29 = C#CCN([C@@H](Cc1ccc(C(F)(F)F)cc1)C(=O)[*:2])[*:1]; NPrPhe(4-CF3) = CCCN[C@@H](Cc1ccc(C(F)(F)F)cc1)C(=O)O; NMeGly(cPent) = CN[C@H](C(=O)O)C1CCCC1; Hyp = O=C(O)[C@@H]1C[C@@H](O)CN1; NMeD = CN[C@@H](CC(=O)O)C(=O)O; NMeL = CN[C@@H](CC(C)C)C(=O)O; αMeS = C[C@](N)(CO)C(=O)O; Morpholide = C1CN(*)CCO1; NMeA = CN[C@@H](C)C(=O)O; Ac5c = NC1(C(=O)O)CCCC1; Aze = O=C(O)[C@@H]1CCN1; Ac4c = NC1(C(=O)O)CCC1; Sar = CNCC(=O)O; tBu = CC(C)(C)*
Columns and labels:
[1] = target: HRAS wild-type protein (Homo sapiens, UniProt P01112); assay: Binding to HRAS by surface plasmon resonance (SPR), KD and KD ratio to KRAS
In short: (§1)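 Affinity is measured by surface plasmon resonance at 30°C against captured, GDP-loaded RAS carrying a biotinylated Avi tag. Compounds are titrated by single-cycle kinetics, and KD comes from a 1:1 fit.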

[2] = target: GDP-bound NRAS wild-type protein (Homo sapiens, UniProt P01111); assay: Binding to NRAS by surface plasmon resonance (SPR), KD and KD ratio to KRAS
In short: as §1

[3] = test system: human lung cancer strain NCI-H441; format: cell-based
In short: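 Readout: […] after the ATP-based reagent. Compound: serial dilutions in dimethyl sulfoxide.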

[4] = ratio of KD for HRAS wild-type protein to KD for KRAS
[5] = ratio of KD for GDP-bound NRAS wild-type protein to KD for KRAS
[6] = ratio of the KD value with respect to HRAS wild-type protein to the KD value with respect to KRAS
[7] = ratio of the KD value with respect to GDP-bound NRAS wild-type protein to the KD value with respect to KRAS

Chain of HRAS wild-type protein (P01112 whole entry): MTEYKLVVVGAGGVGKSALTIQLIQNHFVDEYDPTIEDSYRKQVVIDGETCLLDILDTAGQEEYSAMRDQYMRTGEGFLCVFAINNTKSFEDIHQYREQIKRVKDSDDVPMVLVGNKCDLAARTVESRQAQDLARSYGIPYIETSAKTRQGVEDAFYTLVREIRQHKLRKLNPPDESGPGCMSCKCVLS
Chain of GDP-bound NRAS wild-type protein (P01111 whole entry): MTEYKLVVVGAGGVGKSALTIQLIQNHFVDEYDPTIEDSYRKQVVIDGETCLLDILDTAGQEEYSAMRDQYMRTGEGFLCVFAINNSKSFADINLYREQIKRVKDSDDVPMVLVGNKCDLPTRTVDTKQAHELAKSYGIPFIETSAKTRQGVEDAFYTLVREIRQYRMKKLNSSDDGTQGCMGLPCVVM

| SMILES | HRAS /KRAS [1, 4] | NRAS /KRAS [2, 5] | IC50 [3] | other results |
| --- | --- | --- | --- | --- |
| CC[C@H](C)[C@@H]1NC(=O)[C@H](COC)N(C)C(=O)C[C@@H](C(=O)N2CCOCC2)N(C)C(=O)[C@H](C2CCCC2)N(C)C(=O)C2(CCC2)NC(=O)[C@@H]2CCN2C(=O)[C@H](CCc2cc(F)c(C(F)(F)F)c(F)c2)NC(=O)CN(C)C(=O)[C@H](Cc2ccc(C(F)(F)F)cc2)N2CCCCC[C@@H](C2=O)N(C)C(=O)CN(C)C1=O [PP0840] | B (a compound having 3 or more and less than 10 is denoted as B) | B (a compound having 3 or more and less than 10 is denoted as B) | 572 nM |  |
| CCCN1C(=O)CN(C)C(=O)CN(C)C(=O)[C@H]([C@@H](C)CC)NC(=O)[C@H](CC(C)C)N(C)C(=O)C[C@@H](C(=O)N(C)C)N(C)C(=O)[C@H](C2CCCC2)N(C)C(=O)[C@](C)(COC(C)(C)C)NC(=O)[C@@H]2CCCN2C(=O)[C@H](CCc2cc(F)c(C(F)(F)F)c(F)c2)NC(=O)CN(C)C(=O)[C@@H]1Cc1ccc(C(F)(F)F)cc1 [PP0743] ([NMeL]I[Sar][Sar][NPrPhe(4-CF3)][Sar][hPhe(3,5-F2-4-CF3)]P[αMeS](tBu)[NMeGly(cPent)][NMeD]-NMe2; lactam N-11) |  |  | 76.3 nM | HRAS /KRAS [1, 6]: C (A compound having a KD ratio of 0.1 or more and less than 3 is denoted as C); NRAS /KRAS [2, 7]: B (a compound having 3 or more and less than 10 is denoted as B) |
| CCO[C@@H]1C[C@H]2C(=O)NC3(CCC3)C(=O)N(C)[C@@H](C3CCCC3)C(=O)N(C)[C@H](C(=O)N(C)C)CC(=O)N(C)[C@@H](COC)C(=O)N[C@@H]([C@@H](C)CC)C(=O)N(C)CC(=O)N(C)[C@H]3CCCCN(C3=O)[C@@H](Cc3ccc(C(F)(F)F)cc3)C(=O)N(C)CC(=O)N[C@@H](CCc3cc(F)c(C(F)(F)F)c(F)c3)C(=O)N2C1 [PP0704] |  |  | 11.4 nM | HRAS /KRAS [1, 6]: C (A compound having a KD ratio of 0.1 or more and less than 3 is denoted as C); NRAS /KRAS [2, 7]: C (A compound having a KD ratio of 0.1 or more and less than 3 is denoted as C) |
| CCO[C@@H]1C[C@H]2C(=O)NC3(CCC3)C(=O)N(C)[C@@H](C3CCCC3)C(=O)N(C)[C@H](C(=O)N(C)C)CC(=O)N(C)[C@@H](CCC(=O)N(C)C)C(=O)N[C@@H]([C@@H](C)CC)C(=O)N(C)CC(=O)N(C)[C@H]3C/C=C\CCN(C3=O)[C@@H](Cc3ccc(C(F)(F)F)cc3)C(=O)N(C)CC(=O)N[C@@H](CCc3cc(F)c(C(F)(F)F)c(F)c3)C(=O)N2C1 [PP1122] | B (a compound having 3 or more and less than 10 is denoted as B) | A (a compound having 10 or more and less than 20 is denoted as A) | 275 nM |  |
| CC[C@H](C)[C@@H]1NC(=O)[C@@H]2CCC/C=C/c3ccc(cc3)C[C@@H](C(=O)N(C)CC(=O)N[C@@H](CCc3ccc(Cl)c(Cl)c3)C(=O)N3C[C@H](OC(C)C)C[C@H]3C(=O)NC3(CC(C)(C)C3)C(=O)N(C)[C@@H](C3CCCC3)C(=O)N(C)[C@H](C(=O)N(C)CC)CC(=O)N2C)N2CC/C=C\C[C@@H](C2=O)N(C)C(=O)CN(C)C1=O [PP2595] | B (a compound having 3 or more and less than 10 is denoted as B) | A (a compound having 10 or more and less than 20 is denoted as A) | 12.7 nM |  |
| C#CCN1C(=O)CN(C)C(=O)CN(C)C(=O)[C@H]([C@@H](C)CC)NC(=O)[C@H](CC(C)C)N(C)C(=O)C[C@@H](C(=O)N2CCOCC2)N(C)C(=O)[C@H](C2CCCC2)N(C)C(=O)C2(CCCC2)NC(=O)[C@@H]2CCCN2C(=O)[C@H](CCc2ccc(C(F)(F)F)c(Cl)c2)NC(=O)CN(C)C(=O)[C@@H]1Cc1ccc(C(F)(F)F)cc1 [PP0130] ([NMeL]I[Sar][Sar][X29][Sar][hPhe(3-Cl-4-CF3)]P[Ac5c][NMeGly(cPent)][NMeD]-Morpholide; lactam N-11) | C (A compound having a KD ratio of 0.1 or more and less than 3 is denoted as C) | C (A compound having a KD ratio of 0.1 or more and less than 3 is denoted as C) | 8.8 nM |  |
| CCO[C@@H]1C[C@H]2C(=O)NC3(CCC3)C(=O)N(C)[C@@H](C(CC)CC)C(=O)N(C)[C@H](C(=O)N(C)C)CC(=O)N(C)[C@@H](CC(C)C)C(=O)N[C@@H]([C@@H](C)CC)C(=O)N(C)CC(=O)N(C)[C@H]3C/C=C\CCN(C3=O)[C@@H](Cc3ccc(F)cc3C)C(=O)N(C)CC(=O)N[C@@H](CCc3cc(F)c(C(F)(F)F)c(F)c3)C(=O)N2C1 [PP1518] |  |  | 49.4 nM | HRAS /KRAS ([1]; ratio of KD value for HRAS wild-type protein to KD value for KRAS (SPR)): B (a compound having 3 or more and less than 10 is denoted as B); NRAS /KRAS ([2]; ratio of KD value for GDP-bound NRAS wild-type protein to KD value for KRAS (SPR)): A (a compound having 10 or more and less than 20 is denoted as A) |
| CCCN(C)C(=O)[C@@H]1CC(=O)N(C)[C@@H](CC2CC2)C(=O)N[C@@H]([C@@H](C)CC)C(=O)N(C)CC(=O)N(C)[C@H]2C/C=C\CCN(C2=O)[C@@H](Cc2ccc(C(F)(F)F)cc2)C(=O)N(C)CC(=O)N[C@@H](CCc2cc(F)c(C(F)(F)F)c(F)c2)C(=O)N2C[C@H](OCC)C[C@H]2C(=O)NC2(CCC2)C(=O)N(C)[C@@H](C2CCCC2)C(=O)N1C [PP1388] |  |  | 8.8 nM | HRAS /KRAS ([1]; ratio of KD with respect to HRAS wild-type protein to KD with respect to KRAS): B (a compound having 3 or more and less than 10 is denoted as B); NRAS /KRAS ([2]; ratio of KD with respect to GDP-bound NRAS wild-type protein to KD with respect to KRAS): A (a compound having 10 or more and less than 20 is denoted as A) |
| CCC[C@H]1C(=O)N[C@@H]([C@@H](C)CC)C(=O)N(C)CC(=O)N(C)[C@H]2C/C=C\CCN(C2=O)[C@@H](Cc2ccc(C)cc2)C(=O)N(C)CC(=O)N[C@@H](CCc2ccc(C(F)(F)F)c(OC)c2)C(=O)N2C[C@H](OCC)C[C@H]2C(=O)N(C)C2(CCC2)C(=O)N(C)[C@@H](C2CCCC2)C(=O)N(C)[C@H](C(=O)N2CCCC2)CC(=O)N1C [PP3106] | A (a compound having 10 or more and less than 20 is denoted as A) | A (a compound having 10 or more and less than 20 is denoted as A) | 2.9 nM |  |
| CCCN1C(=O)[C@@H]2CCN2C(=O)[C@H](C)N(C)C(=O)[C@H]([C@@H](C)CC)NC(=O)[C@H](CC(C)C)N(C)C(=O)C[C@@H](C(=O)N(C)C)N(C)C(=O)[C@H](C2CCCC2)N(C)C(=O)C2(CCCC2)NC(=O)[C@@H]2CCCN2C(=O)[C@H](CCc2ccc(C(F)(F)F)c(Cl)c2)NC(=O)CN(C)C(=O)[C@@H]1Cc1ccc(C(F)(F)F)cc1 [PP0178] ([NMeL]I[NMeA][Aze][NPrPhe(4-CF3)][Sar][hPhe(3-Cl-4-CF3)]P[Ac5c][NMeGly(cPent)][NMeD]-NMe2; lactam N-11) | B (a compound having 3 or more and less than 10 is denoted as B) | C (A compound having a KD ratio of 0.1 or more and less than 3 is denoted as C) | 1.5 nM |  |
| CCCN1C(=O)CN(C)C(=O)CNC(=O)[C@H]([C@@H](C)CC)NC(=O)[C@H](CC(C)C)N(C)C(=O)C[C@@H](C(=O)N(C)C)N(C)C(=O)[C@H](C2CCCC2)N(C)C(=O)C2(CCC2)NC(=O)[C@@H]2C[C@@H](OCC)CN2C(=O)[C@H](CCc2ccc(C(F)(F)F)c(Cl)c2)NC(=O)CN(C)C(=O)[C@@H]1Cc1ccc(C(F)(F)F)cc1 [PP0422] ([NMeL]IG[Sar][NPrPhe(4-CF3)][Sar][hPhe(3-Cl-4-CF3)][Hyp](Et)[Ac4c][NMeGly(cPent)][NMeD]-NMe2; lactam N-11) |  |  | 1.6 nM | HRAS /KRAS [1, 6]: B (a compound having 3 or more and less than 10 is denoted as B); NRAS /KRAS [2, 7]: B (a compound having 3 or more and less than 10 is denoted as B) |

Reference: patent EP4603105A1, “PHARMACEUTICAL COMPOSITION CONTAINING CYCLIC COMPOUND HAVING SELECTIVE KRAS INHIBITORY EFFECT AGAINST HRAS AND NRAS” (CHUGAI SEIYAKU KABUSHIKI KAISHA, priority 2022, dated 2024)
